US20200306254A1, “COMBINATION OF ERK1/2 INHIBITOR COMPOUND WITH GEMCITABINE OR WITH GEMCITABINE AND NAB-PACLITAXEL FOR USE IN TREATMENT OF PANCREATIC CANCER” (Eli Lilly and Company, priority 2016, published 2020)
Like-named read-outs stand apart in the source and are kept apart here.

Experiments:
[1] = system: ERK substrate (RSK) phosphorylation in HCT116 colorectal cancer cell line; assay: ERK1/2 Cell Mechanistic Assay (pRSK1 Alphascreen Assay); format: cell-based; conditions: Homo sapiens, HCT-116, HCT116 cells, 2 h, n=8, read-out: IC50, ERK substrate (RSK) phosphorylation in tumor cells
Description: The purpose of this assay is to measure the ability of a compound to inhibit ERK signaling in cancer cells in vitro. Carry out the pRSK1 Alphascreen assay using the HCT116 colorectal cancer cell line (ATCC, # CCL-247). Routinely culture HCT116 cells in Dulbecco's Modified Eagle's Medium (DMEM) (Hyclone, # SH30022) growth medium containing 5%0/Fetal Bovine Serum (FBS) (Gibco, #16000-044) in T-150 flasks and incubate in a 5% CO2 incubator at 37° C. Harvest cells when they become confluent and freeze in freezing medium at 1×10e^7 cells/mL as “assay ready frozen cells” and store in liquid nitrogen. To run the assay, plate 40,000 HCT116 cells/well in a 96-well tissue culture plate and incubate at 37° C. in a 5% CO2 incubator overnight. Test compounds at 10 concentrations starting at a 20 μM top concentration and utilize a 1:3 dilution scheme (20 μM to 0.001 μM) with a final DMSO concentration of 0.5% (v/v). Add compounds in 20 μL serum free growth medium and incubate at 37° C. for two hours. Remove growth medium and add 50 μL of 1× lysis buffer [Cell Signaling Technology, #9803] containing 1× holt protease and […] inhibitor cocktail [Thermo, #78441] to each well and incubate at room temperature for 10 minutes on a shaker. […] Measure the fluorescence intensity in each well by reading the plates in ENVISION® (PerkinElmer) plate reader. […]

[2] = system: human pancreatic cancer cells MIA PaCa2 xenograft; assay: Xenograft Tumor Model (MIA PaCa2); format: in vivo, female athymic nude mice; conditions: for Delta T/C % or Regression %: oral gavage, 14 days
Description: The purpose of this assay is to measure reduction in tumor volume in response to test compound administration. Expand human pancreatic cancer cells MIA PaCa2 (ATCC, # CRL1420) in culture, harvest and inject 5×10e^6 cells in 200 μL of 1:1 HBSS+matrigel solution subcutaneously on the rear right flank of female athymic nude mice (22-25 g, Harlan Laboratories). Measure tumor growth and body weight twice per week beginning the seventh day after the implantation. When tumor sizes reach 200-400 mm^3, randomize animals and group into groups of eight to ten animals. Prepare test compound in an appropriate vehicle (vehicle: […]/0.25% TWEEN® 80/0.05% Antifoam) and administer by oral gavage daily for 14 days. Tumor response is determined by tumor volume measurement performed twice a week during the course of treatment. Body weight is taken as a general measure of toxicity.
Regression % is calculated when the endpoint volume is below baseline. The formula is 100*(T−T0)/T0. Where T0 is the mean baseline tumor volume for the treated group. Grand mean of all groups from baseline (randomization) at day 20 used to compute % change of T/C.

[3] = system: KRAS mutant (G12V) Capan-2 pancreatic cancer xenograft; format: in vivo; conditions: for Delta T/C % or % Regression: Day 34, Compound A 50 mg/kg QD PO, gemcitabine 100 mg/kg once weekly IP; for Difference (Treatment 1 − Treatment 2), tumor growth: Treatment 1 = Vehicle QD x 28 PO, log10 tumor volume, Compound A 50 mpk QD x 28 PO, Gemcitabine 100 mpk Q7D x 4 IP; for inhibition of tumor growth: single agents vs vehicle control group, combination vs each single agent alone
Description: Human pancreatic cancer cell line Capan-2 (ATCC cat # HTB-80) are cultured in DMEM supplemented with 10% fetal bovine serum, sodium pyruvate, nonessential amino acids, L-glutamine, and penicillin-streptomycin (Invitrogen, Carlsbad, Calif.). All cultures are maintained in a humidified incubator at 37° C. under 5% CO2/95% air free off mycoplasma and pathogenic murine viruses. The cells are used for experiments at passages <7 after recovery from frozen stocks.
Female CB-17 SCID nude mice are ordered from Charles River Laboratories International, Inc. All animals are acclimated for one week before the use and are housed and maintained in specific pathogen-free conditions in accordance with the guidelines of the American Association for Laboratory Animal Care and all current regulations and standards of the U.S. Departments of Agriculture and of Health and Human Services and the NIH. The experiment protocol is approved by the Eli Lilly and Company Animal Care and Use Committee.
Logarithmically growing Capan-2 cells (5×10^6/200 μL, single-cell suspensions of over 95% viability in Hank's medium mixed with equal volume of Matrigel (Becton Dickinson & Co., San Jose, Calif.)) are subcutaneously injected into the flank of the mice. When the average tumor volume reaches about 200 to 300 mm^3 following tumor cell implantation, the animals are randomized into different groups (n=5). The animals are treated with vehicle control (1% HEC/0.25% TWEEN® 80/0.05% Antifoam, daily, orally), Compound A (50 mg/kg, QD, PO), gemcitabine (100 mg/kg, once weekly, intraperitoneal), and the combination for 4 weeks. Compound A was formulated in 1% HEC/0.25% TWEEN® 80/0.05% Anti foam and gemcitabine is formulated in phosphate buffered saline (lx). Tumor volume and body weight are measured twice weekly. Tumor volume is estimated by using the formula: v=l×w2×0.536 where l=larger of measured diameter and w=smaller of perpendicular diameter.
The statistical analysis of the tumor volume data begins with a data transformation to a log scale to equalize variance across time and treatment groups. The log volume data are analyzed with a two-way repeated measures analysis of variance by time and treatment using the MIXED procedures in SAS software (Version 9.3). The correlation model for the repeated measures is Spatial Power. Treated groups are compared to the control group at each time point. The MIXED procedure is also used separately for each treatment group to calculate adjusted means and standard errors at each time point. Both analyses account for the autocorrelation within each animal and the loss of data that occurs when animals with large tumors are removed from the study early. The adjusted means and standard errors (s.e.) are plotted for each treatment group versus time. Analysis for tumor volume is based on log10 and spatial power covariance structure. P value is based on the comparison between two specific groups.
First, the usual repeated measures model is fit to log volume versus group and time. Then contrast statements are used to test for an interaction effect at each time point using the 2 specific treatments that are combined. This is equivalent to the Bliss Independence method and assumes that tumor volumes can, in theory, reach zero, i.e., complete regression. The expected additive response (EAR) for the combination is calculated on the tumor volume scale as: response (EAR) EAR volume=V1*V2/V0, where V0, V1, and V2 are the estimated mean tumor volumes for the vehicle control, treatment 1 alone, and treatment 2 alone, respectively. If the interaction test is significant, the combination effect is declared statistically more than additive or less than additive depending on the observed combination mean volume being less than or more than the EAR volume, respectively. Otherwise, the statistical conclusion is additive. In addition, a biologically relevant range of additivity can be defined as X % above and below the EAR volume. Typically, X would be 25 to 40%. […]

SMILES | IC50 [1] [nM] | Delta T/C % or Regression % ([2]; MIA PaCa2 xenograft, 25 mg/kg QD) [%] | Delta T/C % or Regression % ([2]; MIA PaCa2 xenograft, 50 mg/kg QD) [%] | Delta T/C % or Regression % ([2]; MIA PaCa2 xenograft, 100 mg/kg QD) [%] | Delta T/C % or Regression % ([2]; MIA PaCa-2 xenograft, 12.5 mg/kg QD) [%] | anti-tumor activity ([2]; human pancreatic cancer xenograft model (MIA PaCa2)) | Delta T/C % or % Regression [3] [%] | Difference (Treatment 1 − Treatment 2), tumor growth [3] | inhibition of tumor growth [3] | Delta T/C % or % Regression ([3]; listed as gemcitabine) [%]
Cn1nccc1Nc1nccc(-c2cc3c(s2)C(C)(C)N(CCN2CCOCC2)C3=O)n1 [Compound A, 6,6-Dimethyl-2-{2-[(1-methyl-1H-pyrazol-5-yl)amino]pyrimidin-4-yl}-5-[2-(morpholin-4-yl)ethyl]-5,6-dihydro-4H-thieno[2,3-c]pyrrol-4-one] | 429 | 2 | −22 | −66 | 32 | significant anti-tumor activity | 40 | 0.397 | partial inhibition of tumor growth | 
Nc1ccn([C@@H]2O[C@H](CO)[C@@H](O)C2(F)F)c(=O)n1 [Gemcitabine, gemcitabine] |  |  |  |  |  |  | 24 | 0.633 | partial inhibition of tumor growth | 20
